From patent publication US20250249056A1, “CANCER THERAPIES COMPRISING A NUCLEAR EXPORT INHIBITOR AND AN ONCOLYTIC VIRUS” (priority 2022, published 2025)

What was measured:
[1] = system: HT29 xenograft tumors; assay: HT29 xenograft tumor model in NSG mice; format: in vivo
Description: (§1) To test the ability of selinexor to enhance MYXV replication in vivo, a xenograft tumor model was established in immunodeficient NSG mice. Human Colo205 (FIG. 7) and HT29 (FIG. 8) cells were injected subcutaneously on both sides of the flank to generate tumors (FIG. 7A). After the tumors size reached between 100-200 mm^3 (2-3 weeks), mice were separated into treatment groups to have approximately equal average tumor sizes. Animals (n=5) were treated with PBS (oral and IT right tumor), selinexor (oral, 15 mg/kg), vMyx-Fluc (wild-type MYXV expressing Firefly luciferase and TdTomato; IT left tumor, 1×10^7 FFU), or selinexor (oral) and vMyx-Fluc (IT left tumor). After 48 hours post-treatment mice were imaged using an IVIS system for luciferase expression. […] Subsequently, mice received 2nd and 3rd doses of selinexor and a second IT injection of MYXV in the same tumor. […] Additionally, tumor burden was measured on both flanks during the course of treatment (FIG. 7F, FIG. 7G, FIG. 8E, and FIG. 8F).
(§2) Animal Studies: Male and female NSG mice were purchased from Jackson laboratory at 6-8 weeks of age. Animals were housed under sterile conditions. The animals were acclimatized for at least seven days before tumor implantation or any experimental procedures. Cells (1×10^6/mouse in 100 μL PBS) were subcutaneously injected into the flanks of NSG mice. When the average tumor volumes reached 50-200 mm^3, the mice were randomized into different treatment groups of five or six animals such that each treatment group had approximately the same average tumor volume. Tumor volume was measured two or three times per week as follows: volume=(length×width^2)/2. When the tumor volume reached 1.5-2 cm^3 animals were euthanized and tumors were collected for histology or processed for virus titration. To detect MYXV replication in the tumor bed luciferin was injected via IP delivery and bioluminescence images taken (Xenogen IVIS 2000).

[2] = system: PANC-1 xenograft tumors; assay: PANC-1 xenograft tumor model in NSG mice; format: in vivo
Description: Based on the in vivo results showing selinexor enhances MYXV replication in the tumor bed and reduces the tumor burden in Colo205 and HT29 xenograft tumors, the treatment was examined in PANC-1 xenograft tumors. Human PANC-1 cells were injected subcutaneously on both sides of the flank to generate tumors (FIG. 11A). After the tumor size reached ˜50-100 mm^3 (2-3 weeks), animals were randomly assigned to treatment groups to have approximately equal average tumor size. Animals (n=6) were then treated with PBS, selinexor, MYXV, or selinexor+MYXV. Animals received a total of four treatments within the first two weeks and tumor burden was measured 2-3 times every week. After the first treatment, mice were imaged using the IVIS system for luciferase expression at 24 and 72 hours post-treatment (FIG. 11B and FIG. 11C). […] After imaging and measuring luciferase signals, three additional treatments to test their therapeutic effect on tumor burden and survival were administered.
Luciferase signals in animals were also measured before the endpoint to confirm the presence of the virus in the tumor bed after the final (fourth) injection. […] Luciferase signal was measured again 23 days after the last viral injection, at which point high luciferase activity was still observed in each group (FIG. 13C). At the endpoint, tumors were collected and virus titration assays were performed (FIG. 13D). […] In both tumors, although not significant, viral load was higher in selinexor+MYXV treated mice than mice treated with MYXV alone.
Animal Studies: Male and female NSG mice were purchased from Jackson laboratory at 6-8 weeks of age. Animals were housed under sterile conditions. The animals were acclimatized for at least seven days before tumor implantation or any experimental procedures. Cells (1×10^6/mouse in 100 μL PBS) were subcutaneously injected into the flanks of NSG mice. […] Tumor volume was measured two or three times per week as follows: volume=(length×width^2)/2. […]

[3] = system: MYXV; assay: MYXV reporter gene expression (GFP/TdTomato) and foci by fluorescence microscopy in human cancer cell lines
[4] = system: Colo205 xenograft tumors; assay: Colo205 xenograft tumor model in NSG mice; format: in vivo
Description: as §1, §2

[5] = 48 hours after first vMyx-Fluc IT injection, selinexor oral 15 mg/kg
[6] = both flanks, selinexor oral 15 mg/kg, vMyx-Fluc IT 1×10^7 FFU

For `O=C(/C=C\n1cnc(-c2cc(C(F)(F)F)cc(C(F)(F)F)c2)n1)NNc1cnccn1` [selinexor], the “luciferase expression (IVIS) vs virus alone” value [1, 5] was “significantly higher levels of luciferase”, the “luciferase signal (IVIS) vs virus alone” value ([1]; after second treatment) was “significantly enhanced level of luciferase signal” and the “tumor burden compared to PBS or MYXV-only” value [1, 6] was “significantly reduced tumor burden”. For the same compound, the “luciferase signals (IVIS) vs virus alone” value ([2]; 24 and 72 hours after first treatment) was “significantly higher levels of luciferase signals”, the “tumor burden compared to PBS or MYXV alone” value ([2]; four treatments within first two weeks) was “significant reduction in tumor burden” and the “survival compared to PBS or MYXV alone” value ([2]; mouse, in vivo) was “survived significantly longer”. The “GFP and TdTomato reporter protein expression” value ([3]; PANC-1, Colo205, MDA-MB435, HCT116, selinexor 0.1-10 μM pre-treatment 1 h, vMyx-GFP-TdTomato MOI 5, 48 h post-infection) was “Enhanced GFP and TdTomato reporter protein expression”, the “foci formation in restricted human cancer cell lines” value ([3]; infected at low MOI, selinexor treatment) was “formation of small foci” and the “cell death caused by selinexor alone” value ([3]; selinexor 10 μM or higher, all cancer cell lines tested) was “enhanced cell death”. For the same compound, the “luciferase expression (IVIS) vs virus alone” value [4, 5] was “significantly higher levels of luciferase”, the “luciferase signal (IVIS) vs virus alone” value ([4]; after second treatment) was “significantly enhanced level of luciferase signal” and the “tumor burden compared to PBS or MYXV-only” value [4, 6] was “significantly reduced tumor burden”.
